We go through 31 compounds from ChEMBL document CHEMBL3797166, “Identification of N-phenyl-2-(N-phenylphenylsulfonamido)acetamides as new RORγ inverse agonists: Virtual screening, structure-based optimization, and biological evaluation” (Eur J Med Chem, 2016).

Assay [1] concerns the target T1, Nuclear receptor ROR-gamma (Homo sapiens) (UniProt P51449).
T1 sequence (whole entry): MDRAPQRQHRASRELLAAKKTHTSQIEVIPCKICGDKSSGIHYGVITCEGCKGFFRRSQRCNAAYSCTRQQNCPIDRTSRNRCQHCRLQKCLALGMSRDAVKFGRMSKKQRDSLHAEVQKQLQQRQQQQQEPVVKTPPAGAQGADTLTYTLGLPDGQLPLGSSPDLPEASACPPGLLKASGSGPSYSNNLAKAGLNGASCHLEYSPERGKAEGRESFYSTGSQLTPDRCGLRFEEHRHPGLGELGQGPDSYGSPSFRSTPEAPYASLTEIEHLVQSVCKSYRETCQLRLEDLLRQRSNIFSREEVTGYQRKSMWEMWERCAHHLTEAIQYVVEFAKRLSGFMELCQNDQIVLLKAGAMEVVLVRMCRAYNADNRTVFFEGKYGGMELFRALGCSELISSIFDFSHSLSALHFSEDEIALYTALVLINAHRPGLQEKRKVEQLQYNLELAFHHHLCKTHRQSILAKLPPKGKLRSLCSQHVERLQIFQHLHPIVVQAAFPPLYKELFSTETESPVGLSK
Description: Binding affinity to N-terminal His6-fused human RORgamma-LBD (262 to 507 residues) expressed in Escherichia coli BL21 (DE3) assessed as inhibition of thermal stability activity at 200 uM incubated for 30 mins by RT-PCR analysis

For assay [2], the target named is T2, Nuclear receptor ROR-gamma (Homo sapiens, UniProt P51449).
T2 sequence (P51449 whole entry): T1 sequence (whole entry)
Kind of assay: Displacement of N-terminal biotinylated SRC1-4 coactivator peptide from N-terminal His6-fused human RORgamma-LBD (262 to 507 residues) expressed in Escherichia coli BL21 (DE3) by luminescence-based Alphascreen assay. Background: Bead proximity is the source of the signal in Alpha formats.

In assay [3] the target is T2, Nuclear receptor ROR-gamma. Kind of assay: Inhibition of Gal4-RORgamma-LBD (180 to 507 residues) (unknown origin) expressed in HEK293T cells after 24 hrs by dual-luciferase reporter assay. Format: cell-based, HEK-293T. In general terms: Reporter assays use an easily measured gene product as a stand-in for the process of interest.

Active and inactive are the calls of the source. The rule behind the calls is not given here.

One may read the ΔTm as the shift of the melting midpoint relative to a reference. Broadly, the IC50 is the point on the concentration scale where inhibition reaches its midpoint. With `COC(=O)c1ccc(NC(=O)CN(c2cccc(C(F)(F)F)c2)S(=O)(=O)c2ccc(C)cc2)cc1`, the thermal shift (ΔTm) in assay [1] was 1.15 °C. The 50% inhibitory concentration (IC50) in assay [2] (read-out: IC50) is 11.8 µM; in assay [3] (read-out: IC50) it was 3.98 µM.

Consider `Cc1ccc(CNC(=O)CN(c2cccc(C(F)(F)F)c2)S(=O)(=O)c2ccc(C)cc2)cc1`, for which the shift in melting temperature (ΔTm) in assay [1] is 1 °C. In addition, the IC50 result in assay [2] was “Not Active”; in assay [3] (read-out: IC50), 27.2 µM.

Consider `COc1ccc(NC(=O)CN(c2cccc(C(F)(F)F)c2)S(=O)(=O)c2ccc(C)cc2)cc1OC`, for which the thermal shift (ΔTm) in assay [1] is 1.3 °C. Also, the concentration for half-maximal inhibition (IC50) turned out to be 12.8 µM in assay [2] (read-out: IC50) and 2.44 µM in assay [3] (read-out: IC50).

`Cc1ccc(S(=O)(=O)N(CC(=O)NCc2ccc(F)cc2)c2cccc(C(F)(F)F)c2)cc1`: in assay [1], the thermal shift (ΔTm) was determined as 1.07 °C. For the same compound, the results for the 50% inhibitory concentration (IC50) in assay [2] (read-out: IC50) and in assay [3] (read-out: IC50) were 13.1 µM and 7.51 µM, respectively.

Take `Cc1ccc(S(=O)(=O)N(CC(=O)Nc2nc(C)cs2)c2cccc(C(F)(F)F)c2)cc1`: in assay [1], the thermal shift (ΔTm) came to 0.8 °C. The concentration for half-maximal inhibition (IC50) in assay [2] (read-out: IC50) is 15.8 µM; in assay [3] (read-out: IC50), 3.65 µM.

In the case of `Cc1ccc(S(=O)(=O)N(CC(=O)Nc2cccc(C(=O)O)c2)c2cccc(C(F)(F)F)c2)cc1`, the 50% inhibitory concentration (IC50) result in assay [3] (hek-293t) is “Not Active”.

Consider `Cc1ccc(S(=O)(=O)N(CC(=O)Nc2ccc(C#N)cc2)c2ccc(C#N)cc2)cc1`, for which the ΔTm in assay [1] amounted to 1.71 °C. Besides, the figures for the IC50 in assay [2] (read-out: IC50) and in assay [3] (read-out: IC50) were 65.3 µM and 1.31 µM, respectively.

`Cc1ccc(S(=O)(=O)N(CC(=O)Nc2ccc(C#N)cc2)c2ccc(C(F)(F)F)cc2)cc1`: in assay [1], the ΔTm was determined as 3.05 °C. In addition, the half-maximal inhibitory concentration (IC50) in assay [2] (read-out: IC50) was determined as 1.07 µM; in assay [3] (read-out: IC50), 0.62 µM.

Consider `Cc1ccc(S(=O)(=O)N(CC(=O)Nc2ccc(C#N)cc2)c2ccc(F)cc2)cc1`, for which the shift in melting temperature (ΔTm) in assay [1] stood at 2.15 °C. In addition, the values for the concentration for half-maximal inhibition (IC50) in assay [2] (read-out: IC50) and in assay [3] (read-out: IC50) were 36.1 µM and 0.91 µM, respectively.

Take `Cc1ccc(S(=O)(=O)N(CC(=O)Nc2ccc(C(N)=O)cc2)c2cccc(C(F)(F)F)c2)cc1`: in assay [1], the thermal shift (ΔTm) was 1.9 °C. The 50% inhibitory concentration (IC50) in assay [2] (read-out: IC50) is 35.1 µM; in assay [3] (read-out: IC50), 0.42 µM.

For the compound `Cc1ccc(S(=O)(=O)N(CC(=O)NCc2ccc(O)cc2)c2cccc(C(F)(F)F)c2)cc1`, the ΔTm in assay [1] was determined as 1 °C. Also, the half-maximal inhibitory concentration (IC50) was 14.7 µM in assay [2] (read-out: IC50) and 22.1 µM in assay [3] (read-out: IC50).

Turning to `Cc1ccc(S(=O)(=O)N(CC(=O)Nc2ccc(OC(F)(F)F)cc2)c2cccc(C(F)(F)F)c2)cc1`, the half-maximal inhibitory concentration (IC50) entry in assay [2] and in assay [3] (hek-293t) was “Not Active” each time.

In the case of `CC(=O)c1ccc(NC(=O)CN(c2cccc(C(F)(F)F)c2)S(=O)(=O)c2ccc(C)cc2)cc1`, in assay [1], the ΔTm worked out at 1.25 °C. Moreover, the IC50 stood at 11.3 µM in assay [2] (read-out: IC50) and 0.59 µM in assay [3] (read-out: IC50).

As for `COC(=O)c1cccc(NC(=O)CN(c2cccc(C(F)(F)F)c2)S(=O)(=O)c2ccc(C)cc2)c1`, the IC50 entry is “Not Active” in assay [2] and 6.06 µM in assay [3] (read-out: IC50).

Regarding `COC(=O)c1ccccc1NC(=O)CN(c1cccc(C(F)(F)F)c1)S(=O)(=O)c1ccc(C)cc1`, the shift in melting temperature (ΔTm) in assay [1] stood at 2.1 °C. The IC50 in assay [3] (read-out: IC50) came out at 1.39 µM.

In the case of `Cc1ccc(S(=O)(=O)N(CC(=O)NC2CCCCC2)c2cccc(C(F)(F)F)c2)cc1`, the thermal shift (ΔTm) in assay [1] was 0.1 °C. In addition, the results for the concentration for half-maximal inhibition (IC50) entry in assay [2] and in assay [3] (read-out: IC50) were “Not Active” and 1.03 µM, respectively.

Take `COC(=O)c1ccc(CNC(=O)CN(c2cccc(C(F)(F)F)c2)S(=O)(=O)c2ccc(C)cc2)cc1`: the IC50 in assay [2] (read-out: IC50) is 67.1 µM; in assay [3] (hek-293t), “Not Active”.

On to `Cc1ccc(S(=O)(=O)N(CC(=O)Nc2ccc(OCc3ccccc3)cc2)c2cccc(C(F)(F)F)c2)cc1`, for which the results for the IC50 in assay [2] (read-out: IC50) and in assay [3] (hek-293t) were 93.9 µM and “Not Active”, respectively.

Take `Cc1ccc(N(CC(=O)Nc2ccc(C#N)cc2)S(=O)(=O)c2ccc(F)cc2)cc1`: the ΔTm in assay [1] was found to be 2.8 °C. For the same compound, the figures for the half-inhibitory concentration (IC50) in assay [2] (read-out: IC50) and in assay [3] (read-out: IC50) were 10.3 µM and 1.45 µM, respectively.

Turning to `Cc1ccc(S(=O)(=O)N(CC(=O)Nc2ccc(O)cc2)c2cccc(C(F)(F)F)c2)cc1`, the ΔTm in assay [1] is 1.6 °C. The figures for the IC50 in assay [2] (read-out: IC50) and in assay [3] (read-out: IC50) were 13.6 µM and 8.34 µM, respectively.

For `Cc1ccc(N(CC(=O)Nc2ccc(C#N)cc2)S(=O)(=O)Cc2ccc(F)cc2)cc1`, the ΔTm in assay [1] stood at 2.5 °C. Moreover, the IC50 in assay [2] (read-out: IC50) is 25.8 µM; in assay [3] (read-out: IC50), 1.78 µM.

Turning to `Cc1ccc(S(=O)(=O)N(CC(=O)NCc2ccncc2)c2cccc(C(F)(F)F)c2)cc1`, in assay [1], the ΔTm is 2.2 °C. Further, the IC50 in assay [2] (read-out: IC50) is 15.2 µM; in assay [3] (read-out: IC50), 8.28 µM.

As for `Cc1ccc(S(=O)(=O)N(CC(=O)Nc2ccc(C(O)(C(F)(F)F)C(F)(F)F)cc2)c2cccc(C(F)(F)F)c2)cc1`, the ΔTm in assay [1] was 0.5 °C. For the same compound, in assay [2] (read-out: IC50), the concentration for half-maximal inhibition (IC50) was 112 µM.

With `CC(=O)N1CCN(C(=O)CN(c2cccc(C(F)(F)F)c2)S(=O)(=O)c2ccc(C)cc2)CC1`, the deltaTm result in assay [1] is “inactive”. Moreover, the IC50 in assay [2] (read-out: IC50) turned out to be 175 µM; in assay [3] (read-out: IC50), 10.4 µM.

As for `Cc1ccc(S(=O)(=O)N(CC(=O)Nc2ccc(F)cc2)c2cccc(C(F)(F)F)c2)cc1`, in assay [1], the ΔTm was 2.1 °C. Besides, the half-inhibitory concentration (IC50) in assay [2] (read-out: IC50) came to 3.99 µM; in assay [3] (read-out: IC50) it was 3.37 µM.

For `Cc1ccc(N(CC(=O)Nc2ccc(C#N)cc2)S(=O)(=O)Cc2ccccc2)cc1`, the thermal shift (ΔTm) in assay [1] was 1.71 °C. The IC50 in assay [2] (read-out: IC50) came out at 36.8 µM; in assay [3] (read-out: IC50), 0.63 µM.

In the case of `Cc1ccc(S(=O)(=O)N(CC(=O)Nc2ccc(C#N)cc2)c2cccc(C(F)(F)F)c2)cc1`, the ΔTm in assay [1] turned out to be 3.5 °C. For the same compound, the half-maximal inhibitory concentration (IC50) in assay [2] (read-out: IC50) came to 0.77 µM; in assay [3] (read-out: IC50), 0.9 µM.

On to `Cc1ccc(S(=O)(=O)N(CC(=O)O)c2cccc(C(F)(F)F)c2)cc1`, for which the deltaTm entry in assay [1] is “inactive”. The concentration for half-maximal inhibition (IC50) in assay [2] (read-out: IC50) is 93.3 µM; in assay [3] (read-out: IC50), 152 µM.

Regarding `Cc1ccc(S(=O)(=O)N(CC(=O)Nc2ccc(F)cc2F)c2cccc(C(F)(F)F)c2)cc1`, the ΔTm in assay [1] was 1.8 °C. For the same compound, the concentration for half-maximal inhibition (IC50) in assay [2] (read-out: IC50) was found to be 62.6 µM; in assay [3] (read-out: IC50), 4.54 µM.

As to `Cc1ccc(S(=O)(=O)N(CC(=O)Nc2ccc(C#N)cc2)c2ccc(Cl)c(Cl)c2)cc1`, the ΔTm in assay [1] was 3.5 °C. Moreover, the 50% inhibitory concentration (IC50) in assay [2] (read-out: IC50) was 0.22 µM; in assay [3] (read-out: IC50), 0.63 µM.

In the case of `CCCCCCNC(=O)CN(c1cccc(C(F)(F)F)c1)S(=O)(=O)c1ccc(C)cc1`, the IC50 entry in assay [2] and in assay [3] (hek-293t) was “Not Active” throughout.
